Structures can show the parent of a compound that is named as a salt.
System: retinal vascular permeability
Assay: Retinal vascular permeability (FITC-dextran leakage) in STZ-induced diabetic retinopathy rat models
Format: in vivo, Sprague Dawley (SD) rats
Settings: STZ 200 mg/kg i.p. rats; retina treated with 50, 100 or 250 μg imatinib mesylate at the same time as STZ; observed after 2 weeks by fluorescence microscope
Experimental: Sprague Dawley (SD) rats were administered intraperitoneally with streptozotocin (STZ; Sigma) at a dose of 200 mg/kg (control group), or were injected with STZ while the retina of the animal models were treated with 50, 100 or 250 μg of imatinib mesylate (Novartis, Switzerland) (test groups).
Meanwhile, after the animal models (control and test groups) were housed for 2 weeks, the animal models were anesthetized, and fluorescein isothiocyanate (FITC)-labeled dextran was injected intracardiacally so that the fluorescent substance flowed along the blood vessels.

Cc1ccc(NC(=O)c2ccc(CN3CCN(C)CC3)cc2)cc1Nc1nccc(-c2cccnc2)n1 [imatinib mesylate]
leak degree of the fluorescent substance (FITC-labeled dextran) in the retina / vascular permeability: significantly reduced
